Measured values as given in patent publication US20070207537A1, “Bioreactor” (priority 2004, published 2007).

System: Human mesnchymal stem cells
Assay: Alamar Blue toxicity assay in perfused microbioreactor culture
Format: cell-based
Conditions: 250 ng/ml, read at day 3 and day 7, FIG. 3
Protocol: Human mesnchymal stem cells were suspended in the α Modified Eagle's Medium (MEM) at the cell density of 10^4/ml. A 50 μl of cell suspension was introduced to each of the microbioreactors and kept at 37° C. After 4 h, the cell was seen to attach to the surface of the microbioreactor under microscope. During culture, αMEM supplemented with 15% FBS, 2% antibiotics/antimycotics and with different concentrations of tested drugs was used. The chemicals used were Trimethoprim and Pyrimethamine, which are known to be toxic to cells. The concentrations of the drug were 100 ng/ml and 250 ng/ml. The flow rate was 0.025 ml/h. Alamar Blue was used to do toxicity assay, which simply indicates the cell metabolity.
The samples from 3 days of culture with drug, 7 days of culture with drug and 3 days of culture without drug and further 4 days culture with drug were incubated with culture medium supplemented with Alamar Blue at day 3 and day 7, respectively for 4 h. Then 100 μl of culture medium was transferred to 96-well plate to read using microplate reader at the excitation wavelength of 530 nm and emission wavelength of 590 nm. Toxicity was shown as the ratio of reading from untreated with drug and from treated with drug, see FIG. 3. The toxicity was increased with culture time with drug. No significant different in toxicity between the two concentrations of drug in the test.

SMILES: CCc1nc(N)nc(N)c1-c1ccc(Cl)cc1 [Pyrimethamine]
- Toxicity (ratio of reading from untreated with drug and from treated with drug): dramatic increase in toxicity
